Experimental data from US9655899B2, “Compositions and methods for treating cancer” (Merck Sharp & Dohme Corp., priority 2012, dated 2017).
Where two headings read alike, the source gives them in different places.

Key:
KNS62 [1] = assay: PKMYT1 siRNA knockdown proliferation assay (ViaLight, 72 hours); format: cell-based, human; details: for dose response curves in control (CT) versus PKMYT1 siRNA transfected cells / EC50: 72 hours; for EC50: Homo sapiens, KNS-62, 72 h, n=2, read-out: anti-proliferative EC50
Method: (§1) For the knockdown studies, NCI-H460 and KNS62, two non-small cell lung cancer cell lines, American Type Culture Collection, Manassas, Va., were transfected with siRNA pools (SMARTpool, Dharmacon, Thermo Fisher Scientific, Waltham, Mass.) with either non-targeting control or PKMYT1 sequences. […] To approximate cell content, ViaLight (Lonza, Basel, Switzerland) was used according to manufacturer's protocol. Samples were run in triplicate and growth was calculated by determining the percentage of the control raw value for each treatment.

NCI-H460 [2] = assay: as above; format: cell-based, human; details: for dose response curves in control (CT) versus PKMYT1 siRNA transfected cells / EC50: 72 hours; for EC50: Homo sapiens, NCI-H460, 72 h, n=3, read-out: anti-proliferative EC50
Method: as §1

522 cancer cell lines = assay: Cellular proliferation assay screen (CellTiter-Glo, 96 hours); format: cell-based, human; details: for EC50: Homo sapiens, 96 h
Method: (§2) All cancer cell lines were grown in medium recommended by the cell line vendor (ATCC). Tissue culture media, serum, and supplements were purchased from Sigma-Aldrich® (St. Louis, Mo.). For the proliferation assay screen (FIG. 1), cells were plated in 384-well tissue culture plates and grown under compound or vehicle treatment. After 96 hours, CellTiter-Glo (Promega, Madison, Wis.) was used according to the manufacturer's protocol to approximate cell content. Samples were run in triplicate and growth was calculated as the CellTiter-Glo raw value of treated samples relative to vehicle-treated control wells.

[3] = system: colorectal cancer cell lines; assay: as above; format: cell-based; details: Homo sapiens, n=66
Method: as §2

[4] = system: neuroblastoma tumor cell lines; assay: as above; format: cell-based; details: Homo sapiens, n=7
Method: as §2

[5] = system: A427 non-small cell lung cancer cell line; assay: Proliferation assay; format: cell-based; details: Homo sapiens, A-427
Method: as §2

A431 = assay: Proliferation assay; format: cell-based; details: Homo sapiens, A-431
Method: as §2

ES-2 = assay: Proliferation assay; format: cell-based; details: Homo sapiens
Method: as §2

KNS62 [6] = assay: Proliferation assay; format: cell-based; details: Homo sapiens, KNS-62
Method: as §2

NCI-H460 [7] = assay: Proliferation assay; format: cell-based; details: Homo sapiens
Method: as §2

pCHK1^S345 = assay: Western blot, DNA damage response marker; format: cell-based, human; details: 2 hours
Excerpt: (§3) Cells were lysed in mammalian protein extraction reagent (MPER, Thermo Fisher 78505, Waltham, Mass.) and then subjected to SDS-PAGE and transferred onto nitrocellulose or PVDF membranes. Antibodies used for Western blotting are from the following sources: total CDK1, pCDK1^Y15, pCDK1^T14, pCHK1^S345, pStathmin^S38, pLaminA/C^S22, pCDK substrate motif, γH2AX, Cyclin A, and total PKMYT1 from Cell Signaling Technologies (Beverly, Mass.); actin-HRP from Santa Cruz Biotechnology (Santa Cruz, Calif.); secondary HRP-conjugated anti-mouse and rabbit antibodies from GE Healthcare (Waukesha, Wis.). Blots were exposed with SuperSignal West Femto chemiluminescent substrate (Thermo Fisher Pierce, Waltham, Mass.).

pCDK1^Y15 = assay: Western blot, WEE1 substrate phosphorylation; format: cell-based, human; details: all six cell lines; 2 hours
Excerpt: as §3

pCDK1^T14 = assay: Western blot, CDK1 T14 phosphorylation; format: cell-based, human; details: six cell lines, possible exception of A427; 2 hours
Excerpt: as §3

[8] = system: TOV21G ovarian cancer cells; assay: Flow cytometry for DNA double strand breaks (γH2AX) and BrdU uptake; format: cell-based, human; details: 150 nM
Method: (§4) To detect DNA double strand breaks, cells were stained with a FITC-conjugated anti-γH2AX (S139) antibody (kit 17-344, Millipore, Billerica, Mass.) after having been fixed overnight in ice-cold 70% ethanol Propidium iodide (PI)/RNase solution (BD Biosciences, Franklin Lakes, N.J.) was used to detect total DNA content. For studies interrogating premature mitosis, an anti-pHH3-Alexa 647 antibody (BD Biosciences 558217) was added. For synchronization studies, cells were incubated in serum-free medium for 36 hours, followed by replenishment with 20% FBS. One hour prior to each harvest, cells were pulsed with 10 μM bromodeoxyuridine (BrdU). Cells were fixed and stained for BrdU and DNA content with an anti-BrdU FITC-conjugated antibody and 7-aminoactinomycin-D (7-AAD) dye, respectively, according to the instructions in the BD Pharmingen™ FITC BrdU Flow Kit (BD Biosciences, Franklin Lakes, N.J.). All cytometry data were collected on the BD LSR II flow cytometer using the BD FACS Diva™ software (BD Biosciences, Franklin Lakes, N.J.), and the results were analyzed in FlowJo version 7.5.

ES-2 cells [9] = assay: Cell synchronization study, S-phase population (BrdU); format: cell-based, human
Method: For synchronization studies, cells were incubated in serum-free medium for 36 hours, followed by replenishment with 20% FBS. One hour prior to each harvest, cells were pulsed with 10 μM bromodeoxyuridine (BrdU). Cells were fixed and stained for BrdU and DNA content with an anti-BrdU FITC-conjugated antibody and 7-aminoactinomycin-D (7-AAD) dye, respectively, according to the instructions in the BD Pharmingen™ FITC BrdU Flow Kit (BD Biosciences, Franklin Lakes, N.J.). All cytometry data were collected on the BD LSR II flow cytometer using the BD FACS Diva™ software (BD Biosciences, Franklin Lakes, N.J.), and the results were analyzed in FlowJo version 7.5.

A2058 cells [10] = assay: Flow cytometry for mitotic marker pHH3; format: cell-based, human; details: EC90 concentration; 24 hours
Method: (§5) To detect DNA double strand breaks, cells were stained with a FITC-conjugated anti-γH2AX (S139) antibody (kit 17-344, Millipore, Billerica, Mass.) after having been fixed overnight in ice-cold 70% ethanol Propidium iodide (PI)/RNase solution (BD Biosciences, Franklin Lakes, N.J.) was used to detect total DNA content. For studies interrogating premature mitosis, an anti-pHH3-Alexa 647 antibody (BD Biosciences 558217) was added.

HT-29 cells [11] = assay: Flow cytometry for mitotic marker pHH3; format: cell-based, human; details: EC90 concentration; 24 hours
Method: as §5

LoVo cells [12] = assay: Flow cytometry for mitotic marker pHH3; format: cell-based, human; details: EC90 concentration; 24 hours
Method: as §5

A2058 cells [13] = assay: Flow cytometry for γH2AX at EC90; format: cell-based, human; details: EC90 concentration; 24 hours
Method: as §5

HT-29 cells [14] = assay: Flow cytometry for γH2AX at EC90; format: cell-based, human; details: EC90 concentration; 24 hours
Method: as §5

LoVo cells [15] = assay: Flow cytometry for γH2AX at EC90; format: cell-based, human; details: EC90 concentration; 24 hours
Method: as §5

ES-2 cells [16] = assay: Flow cytometry for γH2AX in serum-starved cells with or without FBS; format: cell-based, human; details: 500 nM; 24 hours; 20% FBS
Method: as §4

[17] = twice daily (BID) dosing
Excerpt: (§6) CD-1 Nu/Nu female mice aged 5-6 weeks were obtained from Charles River Laboratories (Wilmington, Del.) and housed in Applicants animal care facility at standard laboratory conditions and fed 2018S autoclaveable diet (Harlan Laboratories, Indianapolis, Ind.) and water ad libitum. The protocol was approved by Applicants' in-house animal care and use committee. Mice were inoculated with cells (1:1 Matrigel:PBS) subcutaneously (SC) into the right flank. […] Tumor volume and body weights were recorded bi-weekly.

A427 xenograft = assay: In vivo efficacy, xenograft; set-up: species or system mice; details: 60 mg/kg BID, 28 days
Excerpt: as §6

[18] = system: A431 epidermoid tumor model; assay: In vivo efficacy, xenograft; set-up: species or system mice; details: single agent
Excerpt: as §6

[19] = system: LoVo colorectal tumor model; assay: In vivo efficacy, xenograft; set-up: species or system mice; details: single agent, 60 mg/kg BID; treatment stopped on day 13
Excerpt: as §6

NCI-H2122 NSCLC model = assay: In vivo efficacy, xenograft; set-up: species or system mice; details: single agent
Excerpt: as §6

SK-MES-1 NSCLC model = assay: In vivo efficacy, xenograft; set-up: species or system mice; details: single agent, 60 mg/kg BID
Excerpt: as §6

SMILES: O=C(NOC[C@H](O)CO)c1ccc(F)c(F)c1Nc1ccc(I)cc1F [PD-0325901, reference compound]
- dose response curves in control (CT) versus PKMYT1 siRNA transfected cells (KNS62 [1]): identical dose response curves
- dose response curves in control (CT) versus PKMYT1 siRNA transfected cells (NCI-H460 [2]): identical dose response curves

SMILES: C=CCn1c(=O)c2cnc(Nc3ccc(N4CCN(C)CC4)cc3)nc2n1-c1cccc(C(C)(C)O)n1 [WEE1-1, 2-allyl-1-[6-(1-hydroxy-1-methylethyl)pyridin-2-yl]-6-{[4-(4-methylpiperazin-1-yl)phenyl]amino}-1,2-dihydro-3H-pyrazolo[3,4-d]pyrimidin-3-one]
- response on an adjusted scale (cell lines that were killed) (522 cancer cell lines; 450 nM, 33 of 305 cell lines, 96-hour proliferation assay, 0.25 or less = cell death): < 0.25
- EC50 (522 cancer cell lines; lower end of range, 2% (9/522) of cell lines): ≤ 100 nM
- EC50 (522 cancer cell lines; upper end of range, 19% (98/522) of cell lines): ≥ 1000 nM
- range of anti-proliferative EC50s (522 cancer cell lines; across cell lines screened): at least 10 fold
- EC50 ([3]; read-out: EC50 range): ≥ 170 nM
- EC50 ([3]; read-out: mean EC50): 1160 nM
- EC50 ([4]; read-out: EC50 range): 120 to 450 nM
- EC50 ([4]; read-out: mean EC50): 280 nM
- EC50 [5]: 116 nM
- EC50 (A431): 170 nM
- EC50 (ES-2): 256 nM
- EC50 (KNS62 [6]): 487 nM
- EC50 (NCI-H460 [7]): 535 nM
- lowest concentration with evidence of increased pCHK1^S345 (pCHK1^S345; ES-2, A2058, A431 and A427): 50 nM
- activation of the DDR (pCHK1^S345) (pCHK1^S345; all six cell lines (ES-2, A2058, A431, A427, KNS62, NCI-H460)): dose-dependent activation of the DDR
- effect on pCDK1^Y15 (pCDK1^Y15): dose-dependent reduction
- effect on pCDK1^T14 (pCDK1^T14): did not observe a WEE1-1-dependent effect
- share of DNA damage detected in BrdU-positive cells ([8]; 2 hours): 95%
- share of DNA damage detected in BrdU-positive cells ([8]; 6 hours): 92%
- cells staining positive for γH2AX ([8]; two hours of treatment, 1% to 2% in untreated growing cells): 23%
- change in the S-phase population by 8 hours (ES-2 cells [9]; 500 nM with 20% FBS): no detectable change
- peak S-phase population (ES-2 cells [9]; 500 nM with 20% FBS after 36 hours serum withdrawal): about 50%
- time of peak S-phase population post-FBS (ES-2 cells [9]; 500 nM with 20% FBS, vehicle peak at 12 to 14 hours): 24 h
- percentage of pHH3 positive cells (A2058 cells [10]): increased
- mitotic (pHH3 positive) population with 4N DNA (HT-29 cells [11]): 43%
- mitotic (pHH3 positive) population with <4N DNA (HT-29 cells [11]): 23%
- percentage of pHH3 positive cells (LoVo cells [12]): increased
- H2AX-positive cell population (A2058 cells [13]): 8%
- H2AX-positive cell population (HT-29 cells [14]): 59%
- H2AX-positive cell population (LoVo cells [15]): 27%
- degree of DNA double strand breaks (γH2AX) under mitogen stimulation versus cells not restimulated (ES-2 cells [16]): appreciably larger
- maximum tolerated dose (MTD) [17]: 60 mg per kg
- final volumes of individual treated tumors versus initial volumes (A427 xenograft; all 10 tumors): smaller than their initial volumes
- regression, final volume as % of the initial mean tumor volume (A427 xenograft; n=10): approximately 50%
- TGI [18]: 88%
- tumor regression [19]: 13%
- TGI (NCI-H2122 NSCLC model): 64%
- Tumor growth inhibition (TGI) (SK-MES-1 NSCLC model): 92%
- maximal effect of treatment upon PKMYT1 depletion (KNS62 [1]): not affected
- EC50 (KNS62 [1]; PKMYT1 knocked down): 93 nM
- EC50 (KNS62 [1]; non-targeting control siRNA): 487 nM
- maximal effect of treatment upon PKMYT1 depletion (NCI-H460 [2]): not affected
- EC50 (NCI-H460 [2]; PKMYT1 knocked down): 104 nM
- EC50 (NCI-H460 [2]; non-targeting control siRNA): 677 nM

SMILES: N.N.O=C([O-])C1(C(=O)[O-])CCC1.[Pt+2] [carboplatin, reference compound]
- dose response curves in control (CT) versus PKMYT1 siRNA transfected cells (KNS62 [1]): identical dose response curves
- dose response curves in control (CT) versus PKMYT1 siRNA transfected cells (NCI-H460 [2]): identical dose response curves

SMILES: COc1cccc2c1C(=O)c1c(O)c3c(c(O)c1C2=O)C[C@@](O)(C(=O)CO)C[C@@H]3O[C@H]1C[C@H](N)[C@H](O)[C@H](C)O1 [doxorubicin, reference compound]
- dose response curves in control (CT) versus PKMYT1 siRNA transfected cells (KNS62 [1]): identical dose response curves
- dose response curves in control (CT) versus PKMYT1 siRNA transfected cells (NCI-H460 [2]): identical dose response curves
